Reference: ChEMBL document CHEMBL1201862, “PubChem BioAssay data set” (2004)
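Growth conditions: 96-well plates. Treatment: test compound, 48 hours, 5 concentrations. Analysis: linear interpolation between bracketing concentrations; unreached endpoints set to highest concentration. GI50 = concentration required for 50% inhibition of growth.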 Active and inactive are the calls of the source. Rule as the data show it: active = GI50 up to about 1.1 µM and inactive = higher.

Tests used:
Assay in all cases: NCI tumour cell line growth inhibition, 48 h
HT-29 = tested on: HT-29
SK-MEL-28 = tested on: SK-MEL-28
HCT-116 = tested on: HCT-116
SK-MEL-2 = tested on: SK-MEL-2
NCI-H226 = tested on: NCI-H226
SF-539 = tested on: SF-539
UACC-62 = tested on: UACC-62
A498 = tested on: A498
PC-3 = tested on: PC-3
CAKI-1 = tested on: CAKI-1
SR = tested on: SR
ACHN = tested on: ACHN
786-0 = tested on: 786-0
T47D = tested on: T47D
Hs-578T = tested on: Hs-578T
M14 = tested on: M14
NCI/ADR-RES = tested on: NCI/ADR-RES
SF-295 = tested on: SF-295
RXF 393 = tested on: RXF 393

Measured: GI50

COc1cc(NCC2COc3c(ccc(OC)c3OC)C2=O)c([N+](=O)[O-])cc1OC (stereo not drawn)
inactive: HT-29 > 100 µM | SK-MEL-28 > 100 µM | HCT-116 > 100 µM | SK-MEL-2 > 100 µM | NCI-H226 > 100 µM | SF-539 > 100 µM | UACC-62 77.8 µM | A498 > 100 µM | PC-3 94 µM | CAKI-1 > 100 µM | SR 30.8 µM | ACHN > 100 µM | 786-0 15.6 µM | T47D 26.1 µM | Hs-578T 95.3 µM | M14 > 100 µM | NCI/ADR-RES > 100 µM | SF-295 66.1 µM

Cc1nc(N)c(N2CCNCC2)c(O)n1
inactive: HT-29 > 100 µM | SK-MEL-28 > 100 µM | HCT-116 > 100 µM | SK-MEL-2 > 100 µM | NCI-H226 > 100 µM | SF-539 > 100 µM | A498 > 100 µM | PC-3 > 100 µM | SR > 100 µM | ACHN > 100 µM | 786-0 > 100 µM | T47D > 100 µM | Hs-578T > 100 µM | M14 > 100 µM | NCI/ADR-RES > 100 µM | SF-295 > 100 µM

Cc1ccsc1/C=N/Nc1ccc2ccccc2n1
inactive: HT-29 12.5 µM | RXF 393 30.5 µM | SK-MEL-28 80.4 µM | HCT-116 28.1 µM | SK-MEL-2 25.2 µM | NCI-H226 35.9 µM | UACC-62 25.1 µM | A498 7.76 µM | PC-3 19.6 µM | CAKI-1 17.5 µM | ACHN 15.1 µM | 786-0 30.8 µM | T47D > 100 µM | Hs-578T 37.7 µM | M14 29.1 µM | NCI/ADR-RES 30.5 µM | SF-295 11.1 µM

CC(C)(C)C(=O)C(C(=O)c1ccccc1)C(=O)C(C)(C)C
inactive: HT-29 > 100 µM | RXF 393 > 100 µM | SK-MEL-28 > 100 µM | HCT-116 56.1 µM | SK-MEL-2 > 100 µM | NCI-H226 > 100 µM | SF-539 > 100 µM | A498 > 100 µM | PC-3 > 100 µM | CAKI-1 > 100 µM | ACHN > 100 µM | 786-0 > 100 µM | T47D > 100 µM | Hs-578T > 100 µM | M14 > 100 µM | NCI/ADR-RES 30.5 µM | SF-295 > 100 µM

COC(=O)[C@]1(C)CCC[C@@]2(C)[C@@H]3C[C@@H]4[C@H]5C[C@@]3(CC[C@@H]21)C[C@@]45C
inactive: HT-29 14.5 µM | RXF 393 17.1 µM | SK-MEL-28 17.5 µM | HCT-116 20 µM | SK-MEL-2 16.4 µM | NCI-H226 15.8 µM | SF-539 22.1 µM | UACC-62 14.8 µM | A498 17.2 µM | PC-3 15.2 µM | CAKI-1 16.4 µM | ACHN 15.8 µM | 786-0 16.1 µM | T47D 23.2 µM | Hs-578T 20.5 µM | M14 20.7 µM | NCI/ADR-RES 15.7 µM | SF-295 15.2 µM

COC(=O)C(C)(C)NC(=O)C(Cc1ccccc1)Nc1ncnc2c1ncn2-c1ccc(OC)cc1 (stereo not drawn)
inactive: HT-29 19.9 µM | SK-MEL-28 33.6 µM | HCT-116 28.2 µM | SK-MEL-2 37.5 µM | NCI-H226 32.1 µM | UACC-62 39.1 µM | A498 20.1 µM | PC-3 29.5 µM | CAKI-1 32.7 µM | SR > 10 µM | ACHN > 100 µM | 786-0 28.8 µM | T47D 17.5 µM | Hs-578T 27.8 µM | M14 42.7 µM | NCI/ADR-RES 31.3 µM | SF-295 73.1 µM

Cc1cc(S(=O)(=O)[N-]C(=C(C#N)C#N)[n+]2ccc(N(C)C)cc2)c(SCC(=O)O)cc1Cl
inactive: HT-29 > 100 µM | RXF 393 > 100 µM | SK-MEL-28 > 100 µM | HCT-116 > 100 µM | SK-MEL-2 > 100 µM | NCI-H226 > 100 µM | SF-539 > 100 µM | UACC-62 > 100 µM | A498 > 100 µM | PC-3 > 100 µM | CAKI-1 > 100 µM | ACHN > 100 µM | 786-0 > 100 µM | T47D > 100 µM | Hs-578T > 100 µM | M14 > 100 µM | NCI/ADR-RES > 100 µM | SF-295 > 100 µM

On1c(-c2ccccc2)nc2ccccc2c1=S
inactive: HT-29 6.64 µM | RXF 393 25.5 µM | SK-MEL-28 7.41 µM | HCT-116 2.7 µM | SK-MEL-2 8.75 µM | NCI-H226 9.16 µM | SF-539 4.32 µM | UACC-62 3.7 µM | A498 42.2 µM | PC-3 3.61 µM | CAKI-1 5.48 µM | ACHN 5.21 µM | 786-0 3.95 µM | T47D 3.37 µM | Hs-578T 16.5 µM | M14 2.91 µM | NCI/ADR-RES 4.2 µM | SF-295 2.7 µM

O=C(CN1CCN(Cc2ccccc2)CC1)N1CCCn2c1nc1ccccc1c2=O
inactive: HT-29 > 100 µM | HCT-116 > 100 µM | SK-MEL-2 > 100 µM | NCI-H226 29.2 µM | SF-539 > 100 µM | UACC-62 > 100 µM | A498 > 100 µM | PC-3 > 100 µM | CAKI-1 > 100 µM | SR > 100 µM | ACHN > 100 µM | 786-0 > 100 µM | T47D > 100 µM | Hs-578T > 100 µM | M14 > 100 µM | NCI/ADR-RES > 100 µM | SF-295 > 100 µM

CC1(C)CC[C@]2(C(=O)O)CC[C@]3(C)C(=CCC4=C5C[C@H](O)[C@H](O)[C@@](C)(CO)[C@@]5(C)CC[C@]43C)[C@@H]2C1
inactive: HT-29 41.5 µM | SK-MEL-28 > 100 µM | HCT-116 31.3 µM | SK-MEL-2 80.5 µM | SF-539 56.9 µM | UACC-62 46 µM | A498 17.8 µM | PC-3 59.3 µM | CAKI-1 28.1 µM | SR > 100 µM | ACHN > 100 µM | 786-0 31.8 µM | T47D 28.4 µM | Hs-578T 39.9 µM | M14 66.2 µM | NCI/ADR-RES 43.4 µM | SF-295 33.7 µM

CC1(C)C[C@@H]2C1CCC1(C)CC2(O)CC[C@H]1O (stereo partly drawn)
inactive: HT-29 > 100 µM | SK-MEL-28 > 100 µM | SK-MEL-2 > 100 µM | NCI-H226 > 100 µM | UACC-62 > 100 µM | PC-3 > 100 µM | CAKI-1 > 100 µM | SR > 100 µM | ACHN > 100 µM | 786-0 > 100 µM | T47D > 100 µM | Hs-578T > 100 µM | M14 > 100 µM | NCI/ADR-RES > 100 µM | SF-295 > 100 µM
